IC50 data for 27 molecules are collected here from BindingDB's records for patent US20250320234 (Pretzel Therapeutics, 2025).

The assay addresses T1, Lon protease homolog, mitochondrial (Homo sapiens, UniProt P36776).
T1 sequence (P36776 whole entry): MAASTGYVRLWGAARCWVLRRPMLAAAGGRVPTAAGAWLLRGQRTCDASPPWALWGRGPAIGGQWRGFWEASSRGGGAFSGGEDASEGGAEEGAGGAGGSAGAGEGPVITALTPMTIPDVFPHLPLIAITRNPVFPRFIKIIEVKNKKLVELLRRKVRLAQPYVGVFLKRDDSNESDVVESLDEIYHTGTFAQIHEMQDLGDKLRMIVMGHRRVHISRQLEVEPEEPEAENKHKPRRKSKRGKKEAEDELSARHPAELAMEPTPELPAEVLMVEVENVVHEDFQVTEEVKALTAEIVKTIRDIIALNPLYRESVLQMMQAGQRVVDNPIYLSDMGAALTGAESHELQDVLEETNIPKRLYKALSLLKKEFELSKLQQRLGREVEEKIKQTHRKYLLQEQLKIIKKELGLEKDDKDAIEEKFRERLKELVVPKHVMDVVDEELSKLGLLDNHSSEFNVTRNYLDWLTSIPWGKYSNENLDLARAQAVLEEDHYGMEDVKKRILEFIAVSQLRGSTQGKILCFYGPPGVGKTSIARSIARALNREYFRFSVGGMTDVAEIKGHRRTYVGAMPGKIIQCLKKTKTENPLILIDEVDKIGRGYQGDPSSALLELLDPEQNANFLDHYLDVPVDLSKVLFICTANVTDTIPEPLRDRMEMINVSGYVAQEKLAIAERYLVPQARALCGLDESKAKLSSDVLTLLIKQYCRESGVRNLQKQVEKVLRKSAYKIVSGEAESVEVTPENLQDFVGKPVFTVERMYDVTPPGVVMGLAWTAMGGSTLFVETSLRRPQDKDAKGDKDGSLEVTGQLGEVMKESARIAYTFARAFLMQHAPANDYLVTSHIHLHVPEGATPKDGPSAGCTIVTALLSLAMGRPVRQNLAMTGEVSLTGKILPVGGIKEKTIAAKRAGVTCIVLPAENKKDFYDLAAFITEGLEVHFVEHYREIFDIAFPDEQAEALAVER
The experiment in a line: Biological/Biochemical Evaluation. As to the method:
In this Example, LONP1 (NM_004793.4) activity was measured by a FRET-based assay for protease activity using a fluorogenic peptide DabcylYRGIT(2Abu)SORQK(5-FAM) (Cambridge Research Biochemicals) as substrate. LONP1 activity is followed by an increase in fluorescence signal due to the degradation of the peptide. Inhibition of LONP1 protease activity by an inhibitor compound of the disclosure elicits a decrease in the fluorescent signal. The assay is performed in a 384-well plate (Greiner, cat. #781076) using the following reagents and conditions: substrate (3 μM) was incubated for 1 hour at 37° C. in the presence of LONP1 (15 nM as monomer), 25 mM Tris pH 8.0, 10 mM MgCl2, 0.03 mg/mL […], 0.5 mM DTT, 0.0003% Tween-20, 10 mM NaCl, 0.06 mM ATP and 0.5 mM EGTA in a 15 μL final volume. The LONP1-containing mix (10 μL) was incubated with the test compound for 15 min at 37° C. before adding the peptide-containing mix (5 μL). Solutions were dispensed using a small cassette-Multidrop Combi (Thermo Scientific). Fluorescence was measured using a PheraStar plate reader (BMG Labtech) FI-FRET EX 485 nm Em 520 nm.
The term IC50 denotes the concentration that inhibits the measured activity by half. The molecule `O=C(N[C@H](CSc1ccccc1)C(=O)N[C@@H](CCCc1ccccc1)B(O)O)c1cnccn1` [US20250320234, Compound 34] showed an IC50 of under 50 nM.
Molecule `COC[C@@H](NC(=O)c1ccccc1Cl)C(=O)N[C@@H](CCCc1ccccc1)B(O)O` [US20250320234, Compound 57] displayed an IC50 of under 50 nM.
Next, `COC[C@@H](NC(=O)c1cncnc1)C(=O)N[C@@H](CCCc1ccccc1)B(O)O` [US20250320234, Compound 52]: under 50 nM; `COC[C@@H](NC(=O)c1ccc(Cl)cc1)C(=O)N[C@@H](CCCc1ccccc1)B(O)O` [US20250320234, Compound 51]: under 50 nM.
In the case of `COC[C@@H](NC(=O)c1ccccn1)C(=O)N[C@@H](CCOc1ccccc1)B(O)O` [US20250320234, Compound 43], the half-inhibitory concentration (IC50) is under 50 nM.
For the molecule `O=C(N[C@H](COCc1ccccc1)C(=O)N[C@@H](CCCc1ccccc1)B(O)O)c1cnccn1` [US20250320234, Compound 11], the concentration for half-maximal inhibition (IC50) is under 50 nM.
In the case of `COC[C@@H](NC(=O)c1cccc(C)n1)C(=O)N[C@@H](CCOc1ccccc1)B(O)O` [US20250320234, Compound 42], the IC50 is under 50 nM.
Regarding `COC[C@@H](NC(=O)c1cncc(C)c1)C(=O)N[C@@H](CCOc1ccccc1)B(O)O` [US20250320234, Compound 44], the IC50 is under 50 nM.
`COC[C@@H](NC(=O)c1cnccn1)C(=O)N[C@@H](CCCc1ccc(F)cc1)B(O)O` [US20250320234, Compound 32] had an IC50 of under 50 nM.
On to `COC[C@@H](NC(=O)c1cccc(Cl)c1)C(=O)N[C@@H](CCCc1ccccc1)B(O)O` [US20250320234, Compound 54], for which the IC50 was under 50 nM.
Molecule `COC[C@@H](NC(=O)c1cnccn1)C(=O)N[C@@H](CCCc1ccc(Cl)cc1)B(O)O` [US20250320234, Compound 12] had an IC50 of under 50 nM.
On to `COC[C@@H](NC(=O)c1cnccn1)C(=O)N[C@@H](CCOc1ccc(F)cc1)B(O)O` [US20250320234, Compound 23], for which the IC50 is under 50 nM.
Next, `COC[C@@H](NC(=O)c1cnccn1)C(=O)N[C@@H](CCOc1ccc(Cl)c(F)c1)B(O)O` [US20250320234, Compound 25]: under 50 nM; `COC[C@@H](NC(=O)c1cc(Cl)ccc1Cl)C(=O)N[C@@H](CCCc1ccccc1)B(O)O` [US20250320234, Compound 56]: under 50 nM; `CN(C)S(=O)(=O)C[C@H](NC(=O)c1cnccn1)C(=O)N[C@@H](CCCc1ccccc1)B(O)O` [US20250320234, Compound 36]: under 50 nM.
As for `COC[C@@H](NC(=O)c1cnccn1)C(=O)N[C@@H](CCCc1ccc(OC)cc1)B(O)O` [US20250320234, Compound 5], the figure is under 50 nM.
Regarding `COC[C@@H](NC(=O)c1cccc(C)n1)C(=O)N[C@@H](CCCc1ccccc1)B(O)O` [US20250320234, Compound 10], the half-inhibitory concentration (IC50) is under 50 nM.
`COC[C@@H](NC(=O)c1ccccn1)C(=O)N[C@@H](CCCc1ccccc1)B(O)O` [US20250320234, Compound 9] had a half-inhibitory concentration (IC50) of under 50 nM.
In turn, `COC[C@@H](NC(=O)N1CCOCC1)C(=O)N[C@@H](CCCc1ccccc1)B(O)O` [US20250320234, Compound 31] returned a half-inhibitory concentration (IC50) of under 50 nM.
In turn, `O=C(N[C@H](COC1CC1)C(=O)N[C@@H](CCCc1ccccc1)B(O)O)c1cnccn1` [US20250320234, Compound 20] came in with a concentration for half-maximal inhibition (IC50) of under 50 nM.
`COC[C@@H](NC(=O)c1cnccn1)C(=O)N[C@H](CCOc1ccc(Cl)cc1C)B(O)O` [US20250320234, Compound 28] returned a concentration for half-maximal inhibition (IC50) of over 5000 nM.
As for `COC[C@@H](NC(=O)c1cnccn1)C(=O)N[C@@H](CCOc1ccc(Cl)cc1)B(O)O` [US20250320234, Compound 21], the figure is under 50 nM.
As to `COC[C@@H](NC(=O)[C@@H]1CCC(=O)N1)C(=O)N[C@@H](CCCc1ccccc1)B(O)O` [US20250320234, Compound 7], the IC50 is under 50 nM.
As for `COC[C@@H](NC(=O)c1cnccn1)C(=O)N[C@@H](CCOc1ccc(Cl)cc1F)B(O)O` [US20250320234, Compound 24], the figure is under 50 nM; as for `COC[C@@H](NC(=O)c1cnccn1)C(=O)N[C@@](C)(CCCc1ccccc1)B(O)O` [US20250320234, Compound 22], over 5000 nM; as for `COC[C@@H](NC(=O)c1cnccn1)C(=O)N[C@@H](CCOc1ccccc1)B(O)O` [US20250320234, Compound 14], under 50 nM.
In turn, `CO[C@@H](C)[C@@H](NC(=O)c1cnccn1)C(=O)N[C@@H](CCCc1ccccc1)B(O)O` [US20250320234, Compound 6] registered a half-inhibitory concentration (IC50) of under 50 nM.
